SMILES strings stand for the structures.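 48-hour exposure; five concentrations; linearly interpolated endpoints. The concentration for 50% growth inhibition is given as GI50. Definition used: TGI = concentration required for complete inhibition of growth.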 *1 amine or outer side, *2 acyl side, *3 side chain or, on linkers, in order; H or OH if unused. Where a SMILES comes first, the peptide text is derived from it. [ ]: non-standard residue; d: D form. ξ: configuration not given here. X21 = CC[C@@H](C)C(N[*:1])C(=O)[*:2]; ξR = N=C(N)NCCCC(N)C(=O)O; ξI = CCC(C)C(N)C(=O)O; ξL = CC(C)CC(N)C(=O)O; ξK = NCCCCC(N)C(=O)O; ξV = CC(C)C(N)C(=O)O; ξA = CC(N)C(=O)O

In this test the test system is MDA-MB-468 breast. Briefly: growth of human tumour cells (NCI), 48 h.
For the molecule `C=C1C(=O)O[C@H]2[C@H]1CC/C(COC(=O)c1ccccc1)=C\CC[C@@]1(C)O[C@@H]21`, the GI50 is 464 nM and the TGI came out at 2590 nM.
Take `Cc1cn(-c2cc(NC(=O)c3cncc(C#Cc4cnc5ccc(O[C@@H]6CCOC6)nn45)c3)cc(C(F)(F)F)c2)cn1`: the GI50 is 99.8 nM and the TGI was found to be 432 nM.
Take `O=C(Nc1cccc(-n2cc(-c3ccncc3)c(-c3ccc(O)c(Cl)c3)n2)c1)Nc1cccc(C(F)(F)F)c1`: the GI50 was 1850 nM and the TGI amounted to 6170 nM.
Regarding `CCCN(CCSSCCNc1nc(N(C)O)nc(N(C)O)n1)c1nc(N(C)O)nc(N(C)O)n1`, the GI50 was 2150 nM and the TGI stood at 8860 nM.
As for `Cc1ccc(Sc2sc(-c3ccccc3)nc2[P+](c2ccccc2)(c2ccccc2)c2ccccc2)cc1`, the GI50 was 222 nM and the TGI stood at 674 nM.
Regarding `C=C1C[C@@]2(C)C(CC[C@]3(C)C2CC=C2C4CC(C)(C)C[C@@H](OC(=O)/C(C)=C\C)[C@]4(C(=O)O)CC[C@]23C)C(C)(C)C1=O` (some centres undefined), the GI50 is 2020 nM and the TGI came to 5910 nM.
For `CC(C)Nc1ncc2cc(Oc3ccc(F)cc3F)c(=O)n(C)c2n1`, the GI50 was above 23000 nM and the TGI was above 25000 nM.
As to `OCc1ccc(N(CCN2CCCC2)Cc2ccc(F)cc2)cc1Cl`, the GI50 is 1200 nM and the TGI amounted to 3280 nM.
Take `CCNCCCn1c2c(c3ccc([N+](=O)[O-])cc3c1=O)C(=O)c1cc(OC)cnc1-2`: the GI50 was 41.6 nM and the TGI was found to be 210 nM.
Regarding `CN1CCN(c2ccc(C(=O)Nc3cc(-c4cccc(NS(=O)(=O)c5ccccc5)c4)[nH]n3)cc2)CC1`, the GI50 was 4840 nM and the TGI came to 14000 nM.
Take `Cc1cc2cn3c4cccnc4[nH]c(=O)c3c2cc1C`: the GI50 was 1390 nM and the TGI amounted to 2830 nM.
Turning to `Oc1ccc(C#CCOc2ccccc2)cc1CNCCN(Cc1ccccn1)Cc1ccccn1`, the GI50 was 1730 nM and the TGI worked out at 4170 nM.
In the same order, the values of `O=C(COc1cccc(/C=C2\CSc3ccccc3C2=O)c1)c1ccc(Cl)cc1` are 1500 nM and 3450 nM.
As for `COc1ccccc1/C=C/C(=O)/C=C/c1ccccc1OC`, the GI50 is 1270 nM and the TGI was 2670 nM.
For the molecule `NC(=O)c1ccc2nc3c(n2c1)C(=O)C(=O)c1ccccc1-3`, the GI50 is 587 nM and the TGI came to 1920 nM.
With `C=C1C(=O)O[C@H]2[C@H]1CC/C(Cn1cc(-c3cc(C)c(C)cc3C)nn1)=C\CC[C@@]1(C)O[C@@H]21`, the GI50 is 530 nM and the TGI amounted to 2060 nM.
For `Clc1ccc(Nc2ccnc(NCCCNc3ccnc4cc(Cl)ccc34)n2)cc1`, the GI50 is 1490 nM and the TGI came out at 3050 nM.
As for `COc1cc(OC)c(C(=O)/C=C/c2cccc(OC(C)=O)c2)cc1CC=C(C)C`, the GI50 was 1890 nM and the TGI was found to be 9720 nM.
As to `NC1CCC(N[C@@H]2C[C@H]2c2ccccc2)CC1` (some centres undefined), the GI50 was above 100000 nM and the TGI was above 100000 nM.
`Cn1c(=O)c(Oc2ccccc2)cc2cnc(NC3CCOCC3)nc21`: the GI50 is above 25000 nM and the TGI was above 25000 nM.
On to `C#C[C@]1(O)CC[C@H]2[C@@H]3CC=C4c5sc(N6CCN(C)CC6)nc5CC[C@]4(C)[C@H]3CC[C@@]21C`, for which the GI50 is 2260 nM and the TGI stood at 7600 nM.
In the same order, the values of `CCSc1nnc(-c2ccc3ccccc3c2O)n1-c1ccc(Cl)cc1` are 3590 nM and above 100000 nM.
The like results for `Cc1[nH]nc2c1N=C(c1ccccc1Cl)c1cc([N+](=O)[O-])ccc1N2` were, in that order, 242 nM and above 16800 nM.
As to `COc1ccc(-c2csc(NC(=O)c3cc(O)c(O)c(O)c3)n2)cc1`, the GI50 is 6940 nM and the TGI was 29500 nM.
With `COc1ccc2c(c1)C1(C(=O)N2)C(C#N)=C(c2ccccc2)Nc2c1c(-c1ccccc1)nn2-c1ccccc1` (centres undefined), the GI50 is 2930 nM and the TGI is 9050 nM.
With `CCOC(=O)Nc1nc2c(C)cccc2s1`, the GI50 was 28700 nM and the TGI is above 100000 nM.
The like results for `Nc1ncnc2c1cnn2Cc1ccc(Cl)cc1` were, in that order, 44700 nM and above 100000 nM.
With `N#C/C(=C\c1ccc(Br)cc1)n1nnc2ccccc21`, the GI50 was 566 nM and the TGI was found to be 2220 nM.
The like results for `CCC(C)C1NC(=O)C(CC(C)C)NC(=O)C(C)NC(=O)C(C(C)C)NC(=O)C(CCCCN)NC(=O)C(CC(C)C)NC(=O)C(C(C)C)NC(=O)[C@H](C)NC(=O)C(C(C)CC)NC(=O)C(CCCN=C(N)N)NC(=O)C(CCCCN)NC(=O)C(CCCN=C(N)N)NC(=O)C(CCCCN)NC(=O)C([C@H](C)CC)NC(=O)C(CCCCN)NC1=O` (some centres undefined) (cyclo(A[ξV][ξL][ξK][ξV][ξA][ξL][ξI][ξK][X21][ξK][ξR][ξK][ξR][ξI])) were, in that order, 361 nM and 1420 nM.
The like results for `CN(C)CCCn1c2nc(=O)[nH]c(=O)c-2nc2cc(Cl)c(Cl)cc21` were, in that order, 772 nM and 2130 nM.
`NC1=Nc2cc(OCCCN3Cc4ccccc4C3)c(OCC3CC3)cc2C12CCCC2`: the GI50 was 1040 nM and the TGI stood at 2480 nM.
For the molecule `COc1ccc2c(c1)/C(=C/c1cc(OC)c(OC)c(OC)c1)C(=O)N2C`, the GI50 is 14600 nM and the TGI was above 100000 nM.
With `CNCCCNCCCN1C(=O)c2ccc3c4c(ccc(c24)C1=O)C(=O)N(CCCNCc1ccccc1OC)C3=O`, the GI50 was 1000 nM and the TGI stood at 2770 nM.
On to `Nc1ccccc1NC(=O)c1ccc(NC(=O)C/C=C/c2cccnc2)cn1`, for which the GI50 is 982 nM and the TGI turned out to be 13300 nM.
In the case of `CCOC(=O)c1cc(C(=O)c2cc(OC)c(OC)c(OC)c2)n2ccccc12`, the GI50 is 93.9 nM and the TGI turned out to be 89600 nM.
In the case of `O=C(Nc1ccccc1)Nc1cccc(Oc2nnc(Cl)c3ccccc23)c1`, the GI50 is 1680 nM and the TGI was determined as 7580 nM.
In the case of `C[C@H](N)C(=O)N1C[C@H](CCCB(O)O)[C@](N)(C(=O)O)C1`, the GI50 was above 100000 nM and the TGI is above 100000 nM.

For the origin of these results see PubChem BioAssay (NCI).
